Entries after “also recorded” stand apart in the source; their conditions may differ.
Legend:
[1] = varies with the pH of the urine; cited from earlier work
[2] = Noribogaine-methadone interaction study: mortality and postdose observations after oral dosing; conditions: male, Sprague Dawley, rat, in vivo, po, methadone LD50, rats, oral
[3] = tested on: male Sprague Dawley rats; experiment: as above; conditions: rats; for Number Dead after Methadone: 10 dosed
[4] = Ascending single-dose pharmacokinetics of noribogaine and noribogaine glucuronide (plasma, urine; LCMSMS); conditions: for AUC0-216 / AUC0-∞ / Cmax / Tmax / t1/2 / CL/F: mean (SD)
[5] = tested on: healthy, drug-free male volunteers; experiment: Safety and tolerability: adverse events, vital signs, ECG; type: in vivo, human
Procedure: (§1) Safety and tolerability of noribogaine were tested in the group of volunteers from Example 2. […] Safety evaluations included clinical monitoring, recording of adverse events (AEs), safety laboratory tests, vital signs, ECG telemetry from −2 h to 6 h after dosing, and 12-lead electrocardiograms (ECGs) up to 216 hours post-dosing.

[6] = tested on: opioid-dependent participants; experiment: Efficacy trial: time to resumption of opioid substitution treatment (OST); type: in vivo, human
Procedure: (§2) The efficacy of noribogaine in humans was evaluated in opioid-dependent participants in a randomized, placebo-controlled, double-blind trial. […] See U.S. Provisional Application No. 61/852,485, filed Mar. 15, 2013, which is incorporated herein by reference in its entirety.
(§3) In the first cohort, six patients were orally administered a single dose of 60 mg noribogaine, and three patients received placebo. In the second cohort, five patients were orally administered a single dose of 120 mg noribogaine, and three patients received placebo.

[7] = tested on: healthy, drug-free male volunteers; experiment: Pupillometry (pupillary miosis) after single oral dose; type: in vivo, human; conditions: single oral 3, 10, 30 or 60 mg, up to 216 hours post-dosing
Procedure: Pulse oximetry and capnography data were collected continuously using a GE Carescape B650 monitoring system from 2 hours prior to dosing and until six hours after dosing, and thereafter at 12, 24, 48 and 72 hours post-dosing. […] Pupillary miosis was assessed by pupillometry.

[8] = tested on: opioid-dependent participants; experiment: QT interval prolongation in the efficacy trial; type: in vivo, human
Procedure: as §2, §3

[9] = target: mu receptor; conditions: Pearl et al., Brain Research, 675:342-344 (1995); read-out: affinity constant (K value) for the mu receptor; cited from earlier work
[10] = tested on: healthy, drug-free male volunteers; experiment: Cold pressor test (analgesic effect); type: in vivo, human; conditions: single oral 3-60 mg; duration of hand immersion and VAS pain scores vs placebo
Procedure: Analgesic effect was assessed based on duration of hand immersion in ice water and on visual analog scale (VAS) pain scores upon hand removal from the water bath.
as §1

[11] = plasma noribogaine glucuronide after single oral 30 mg noribogaine
[12] = plasma noribogaine glucuronide after single oral 60 mg noribogaine
[13] = plasma noribogaine, single oral 3 mg
[14] = plasma noribogaine, single oral 10 mg
[15] = plasma noribogaine, single oral 30 mg
[16] = plasma noribogaine, single oral 60 mg
[17] = oral, noribogaine 50 mg/kg then methadone 0 mg/kg (vehicle)
[18] = oral, noribogaine 150 mg/kg then methadone 0 mg/kg (vehicle)

## CC=C1N(C)C(C)CC1(c1ccccc1)c1ccccc1 (centres unmarked) [EDDP, 2-ethylidene-1.5-dimethyl-3.3diphenylpyrrolidine]
[1]
  Urinary excretion (percentage of a dose): 3-25%

## CCC(=O)C(CC(C)N(C)C)(c1ccccc1)c1ccccc1 (centres unmarked) [Methadone, reference compound]
[1]
  Urinary excretion (percentage of a dose): 5-50%
[2]; after 0 mg/kg of noribogaine
  LD50: 68.2 mg/kg
[2]; after 50 mg/kg of noribogaine
  LD50: 29.7 mg/kg
[2]; after 150 mg/kg of noribogaine
  LD50: 8.86 mg/kg
[3]; oral, noribogaine 0 mg/kg then methadone 1 mg/kg (table; b148: 10 mg/kg)
  Number Dead after Methadone: 0
[3]; oral, noribogaine 0 mg/kg then methadone 3 mg/kg (table; b148: 30 mg/kg)
  Number Dead after Methadone: 1
[3]; oral, noribogaine 0 mg/kg then methadone 5 mg/kg (table; b148: 50 mg/kg)
  Number Dead after Methadone: 3
[3]; oral, methadone alone at 10 mg/kg
  Persistence of slight languid behavior: 1.75 h
[3]; oral, methadone alone at 50 mg/kg
  Postdose observations: prostrate, had tremors, shallow respirations
[3]; oral, methadone at doses of 30 and 50 mg/kg
  Persistence of adverse observations following the methadone dose: 3 h
[3]; oral, within one hour following methadone alone at 10 and 30 mg/kg
  Postdose observations: slight ataxia, salivation, hunched posture, and languid behavior

## CC[C@H]1C[C@@H]2C[C@H]3c4[nH]c5ccc(OC6OC(C(=O)O)C(O)C(O)C6O)cc5c4CCN(C2)[C@@H]13 (some centres unmarked) [Noribogaine glucuronide]
[4]; both dose groups (30 mg, 60 mg)
  Proportion of noribogaine glucuronide Cmax and AUC relative to noribogaine: 3-4%
[4]; [11]
  AUC0-216: 25.7 (9.1) ng · hr/ml
  AUC0-∞: 25.8 (9.3) ng · hr/ml
  Cmax: 1.8 (0.6) ng/ml
  Tmax: 3.0 (0.6) hr
  t1/2: 20.6 (4.9) hr
[4]; [12]
  AUC0-216: 65.0 (21.5) ng · hr/ml
  AUC0-∞: 67.1 (21.9) ng · hr/ml
  Cmax: 4.1 (1.2) ng/ml
  Tmax: 3.8 (1.2) hr
  t1/2: 23.1 (3.0) hr
[4]; plasma noribogaine glucuronide, 30 mg and 60 mg dose groups
  Time of peak concentrations after noribogaine dosing: 3 to 4 h
[4]; plasma noribogaine glucuronide, 30 mg and 60 mg noribogaine dose groups
  Time by which detected in all subjects: ≤ 0.75 h

## CC[C@H]1C[C@H]2C[C@H]3c4[nH]c5ccc(O)cc5c4CCN(C2)[C@@H]13 [Noribogaine]
[5]; 3 mg dose group, two subjects
  Number of adverse events reported: five
[5]; 10 mg dose group, single subject
  Number of adverse events reported: one
[5]; 30 mg dose group, single subject
  Number of adverse events reported: one
[5]; Dose 3 mg
  Adverse events, Mild: Dizziness; also recorded: Epistaxis; also recorded: Headache; also recorded: Back pain
  Adverse events, Moderate: Headache
[5]; Dose 10 mg
  Adverse events, Mild: Headache
[5]; Dose 30 mg
  Adverse events, Mild: Headache
[5]; one subject dosed with 10 mg, 24 hours post-dosing
  Single increase in QTcF: > 60 ms
[5]; single oral 3-60 mg
  Oximetry, capnography, respiratory rate: no changes in oximetry or capnography, or changes in respiratory rate
  Vital signs and safety laboratory tests: no changes in vital signs or safety laboratory tests of note
[5]; single oral 3-60 mg, at any time
  QTcF values: ≤ 500 ms
[6]; 60 mg to 180 mg, inverted-U curve
  Therapeutic activity: therapeutic activity at all concentrations
[6]; 120 mg presumed treated patients, estimated from FIG. 4 profile
  Estimated serum noribogaine level at which significant withdrawal symptoms return and OST is resumed: 50 to 60 ng/mL
[6]; 180 mg, 6 presumed (imputed) noribogaine-treated patients
  Average time to resumption of OST: approximately 11.4 hours
[6]; (putatively) administered 60 mg noribogaine
  Time to resumption of OST: 9.6 h
[6]; second cohort, blinded: single oral 120 mg noribogaine (5 patients) or placebo (3)
  Average time to resumption of opioids: approximately 22 hours
[6]; single oral 60 mg or 120 mg
  Adverse effects, including hallucinatory effects: No adverse effects
[7]
  Pupillary constriction (pupil diameter): no evidence of pupillary constriction
[8]; 180 mg
  Change in the QT interval prolongation: above 30 ms
[8]; first cohort (60 mg noribogaine or placebo)
  Mean prolongation of the QT interval: less than 10 ms
[8]; second cohort (120 mg noribogaine or placebo)
  Mean prolongation of the QT interval: less than 40 ms
[9]
  Ki: 2.66 µM
[4]; noribogaine, 3-60 mg, linear regression
  Dose-proportionality of Cmax and AUC: increased linearly with dose
[4]; noribogaine, across dose groups 3-60 mg
  Time of peak concentrations after oral dosing: 2 to 3 h
[4]; noribogaine, single oral 3 mg
  CL/F: 41.4 (7.0) L/h
[4]; noribogaine, single oral 10 mg
  CL/F: 42.3 (12.0) L/h
[4]; noribogaine, single oral 30 mg
  CL/F: 46.9 (16.4) L/h
[4]; noribogaine, single oral 60 mg
  CL/F: 34.0 (11.4) L/h
[4]; [13]
  AUC0-216: 72.2 (13.2) ng · hr/ml
  Cmax: 5.2 (1.4) ng/ml
  Tmax: 1.9 (0.6) hr
  t1/2: 40.9 (8.7) hr
[4]; [14]
  AUC0-216: 251.4 (78.5) ng · hr/ml
  Cmax: 14.5 (2.1) ng/ml
  Tmax: 2.9 (1.8) hr
  t1/2: 49.2 (11.5) hr
[4]; [15]
  AUC0-216: 677.6 (221.1) ng · hr/ml
  Tmax: 1.8 (0.6) hr
  t1/2: 27.6 (7.0))^ hr
[4]; [16]
  AUC0-216: 1935.4 (725.4) ng · hr/ml
  Tmax: 2.4 (0.6) hr
  t1/2: 29.1 (9.3) hr
[3]; [17]
  Number Dead after Methadone: 0
  % Dead after Methadone: 0%
[3]; [18]
  Number Dead after Methadone: 0
  % Dead after Methadone: 0%
[3]; oral, noribogaine 150 mg/kg then methadone 0 mg/kg (vehicle), listed as noribogaine
  Number Dead after Methadone: no deaths
[3]; oral, approximately 5 hours following noribogaine at 50 mg/kg, a few animals
  Postdose observations: languid behavior and tremors involving the entire body
[3]; oral, approximately 5 hours following noribogaine at 150 mg/kg
  Postdose observations: Salivation, languid behavior, and ataxia
[3]; oral, following noribogaine 50 and 150 mg/kg
  Postdose observations: slight ataxia, salivation (slight or severe), and hunched posture
[3]; oral, noribogaine 50 mg/kg
  Percentage of animals with observations of ataxia and salivation: 30-40%
[3]; oral, noribogaine 150 mg/kg
  Percentage of animals with observations of ataxia and salivation: 60-70%
[3]; oral, noribogaine 50 and 150 mg/kg, before methadone
  Persistence of observations following dosing: up to 4 hours
[3]; oral, noribogaine alone
  Persistence of adverse observations following dosing: 6.5 to 7 h
[3]; oral, noribogaine at doses of 0, 50, and 150 mg/kg followed by the interaction article vehicle
  Mortality: no mortality
[3]; oral noribogaine at doses of 50 and 150 mg/kg
  Effect on mortality associated with oral methadone: potentiates the mortality
[10]
  Analgesic effect in the cold pressor test: no analgesic effect

## CC[C@H]1CC2C[C@H]3c4[nH]c5ccc(OC)cc5c4CCN(C2)C13 [ibogaine, reference compound]
[9]
  Ki: 11 µM

Source: US9744174B2 (DemeRx, Inc., priority 2013, dated 2017)
